From patent US6472386B1, “Cyclic diamine compound with 5-membered ring groups” (Kowa Co., Ltd., priority 2001, dated 2002)
Read-outs that look alike come from different tables or passages of the source.

Test system: adhesion of U937 cells to HUVEC stimulated by IL-1β or TNFα
Assay: Inhibitory effect on cell adhesion (U937 cells adhering to stimulated HUVEC)
Type: cell-based
Conditions: Homo sapiens, compound at 1 μM
Description: This test was conducted by reference to the method of Ross et al. (J. Biol. Chem., 267, 8537-8543 (1992)). More specifically, after human umbilical venous endothelial cells (HUVEC) were cultured on a 48-well plate to confluent growth, IL-1β or TNFα was added thereto. Upon elapsed time of 5 hours after the addition, U937, which is a human monocytic/histocytic cell fluorescence-labeled with PKH2 (product of Dainippon Pharmaceutical Co., Ltd.), was added in a proportion of 1×10^6 cells per well. After the plate was left at rest at room temperature for 1 hour, unadhered U937 was washed out and lysed in 1% Triton X-100 to measure a remaining fluorescence intensity (excitation wavelength: 480 nm; measuring wavelength: 530 nm). HUVEC and U937 were cultured in EGM-2 (product of Sanko Junyaku K.K.) and 10% FCS-containing RPMI1640, respectively. Each test agent was added to HUVEC upon the addition of IL-1β or TNFα and to U937 24 hours prior to the cell adhesion test. The inhibitory activity was calculated out according to the equation [100-(C−B)/(A−B)×100 (%)], wherein A is the number of U937 cells adhered to HUVEC stimulated by IL-1β or TNFα when no test agent was added, B is the number of U937 cells adhered to HUVEC not stimulated by IL-1β or TNFα when no test agent was added, and C is the number of U937 cells adhered to HUVEC stimulated by IL-1β or TNFα when the test agent was added. As control compounds, Test Compound 1 described in Japanese Patent Application Laid-Open No. 9-143075 and dilazep described in Japanese Patent Application Laid-Open No. 11-92382 were simultaneously evaluated.

[1] = HUVEC stimulated by IL-1β, read-out: Percent inhibition (%) Stimulation by IL-1β
[2] = HUVEC stimulated by TNFα, read-out: Percent inhibition (%) Stimulation by TNFα

Compound: COc1cc(-c2nc(C)c(CN3CCCN(Cc4sc(-c5cc(OC)c(OC)c(OC)c5)nc4C)CC3)s2)cc(OC)c1OC [Example 11, N,N′-bis[[4-Methyl-2-(3,4,5-trimethoxy-phenyl)thiazol-5-yl]methyl]homopiperazine Dimaleate]
- inhibition at 1 µM [1]: 33%
- inhibition at 1 µM [2]: 53%

Compound: COc1cc(-c2nc(CCCN3CCCN(CCCc4csc(-c5cc(OC)c(OC)c(OC)c5)n4)CC3)cs2)cc(OC)c1OC [Example 6, N,N′-bis[3-(2-(3,4,5-Trimethoxyphenyl)-thiazol-4-yl)propyl]homopiperazine]
- inhibition at 1 µM [1]: 54%
- inhibition at 1 µM [2]: 45%

Compound: COc1cc(-c2cc(CN3CCN(Cc4cc(-c5cc(OC)c(OC)c(OC)c5)n(Cc5ccccc5)n4)CC3)nn2Cc2ccccc2)cc(OC)c1OC [Example 16, N,N′-bis[[1-Benzyl-5-(3,4,5-trimethoxy-phenyl)pyrazol-3-yl]methyl]piperazine]
- inhibition at 1 µM [1]: 30%
- inhibition at 1 µM [2]: 51%

Compound: COc1cc(C(=O)Nc2nc(CN3CCN(Cc4csc(NC(=O)c5cc(OC)c(OC)c(OC)c5)n4)CC3)cs2)cc(OC)c1OC [Example 8, N,N′-bis[[2-(3,4,5-Trimethoxybenzamido)-thiazol-4-yl]methyl]piperazine]
- inhibition at 1 µM [1]: 64%
- inhibition at 1 µM [2]: 58%

Compound: COc1cc(C#Cc2nc(CN3CCCN(Cc4csc(C#Cc5cc(OC)c(OC)c(OC)c5)n4)CC3)cs2)cc(OC)c1OC [Example 7, N,N′-bis[[2-(3,4,5-Trimethoxyphenylethynyl)-thiazol-4-yl]methyl]homopiperazine]
- inhibition at 1 µM [1]: 46%
- inhibition at 1 µM [2]: 60%

Compound: COc1cc(C(=O)OCCCN2CCCN(CCCOC(=O)c3cc(OC)c(OC)c(OC)c3)CC2)cc(OC)c1OC [Dilazep, dilazep, reference compound]
- inhibition at 1 µM [1]: 0%
- inhibition at 1 µM [2]: 12%

Compound: COc1cc(C(=O)Nc2nc(CN3CCCN(Cc4csc(NC(=O)c5cc(OC)c(OC)c(OC)c5)n4)CC3)cs2)cc(OC)c1OC [Example 9, N,N′-bis[[2-(3,4,5-Trimethoxybenzamido)-thiazol-4-yl]methyl]homopiperazine]
- inhibition at 1 µM [1]: 40%
- inhibition at 1 µM [2]: 50%
